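How tested: cells in 96-well plates exposed to compound for 48 hours at five concentrations. Definition used: TGI = concentration required for complete inhibition of growth.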
Experiments:
Test in all cases: growth of human tumour cells (NCI), 48 h
SK-MEL-2 melanoma = tested on: SK-MEL-2 melanoma
LOX IMVI melanoma = tested on: LOX IMVI melanoma
HL-60(TB) leukemia = tested on: HL-60(TB) leukemia
ACHN renal = tested on: ACHN renal
MOLT-4 leukemia = tested on: MOLT-4 leukemia
U251 CNS = tested on: U251 CNS
RPMI-8226 leukemia = tested on: RPMI-8226 leukemia
SF-295 CNS = tested on: SF-295 CNS
UACC-62 melanoma = tested on: UACC-62 melanoma
NCI-H23 lung = tested on: NCI-H23 lung
SNB-19 CNS = tested on: SNB-19 CNS
SF-268 CNS = tested on: SF-268 CNS
SK-MEL-5 melanoma = tested on: SK-MEL-5 melanoma
COLO 205 colon = tested on: COLO 205 colon
SNB-75 CNS = tested on: SNB-75 CNS
DU-145 prostate = tested on: DU-145 prostate
PC-3 prostate = tested on: PC-3 prostate
BT-549 breast = tested on: BT-549 breast
SK-OV-3 ovarian = tested on: SK-OV-3 ovarian

Row | SMILES | TGI (SK-MEL-2 melanoma) [µM] | TGI (LOX IMVI melanoma) [µM] | TGI (HL-60(TB) leukemia) [µM] | TGI (ACHN renal) [µM] | TGI (MOLT-4 leukemia) [µM] | TGI (U251 CNS) [µM] | TGI (RPMI-8226 leukemia) [µM] | TGI (SF-295 CNS) [µM] | TGI (UACC-62 melanoma) [µM] | TGI (NCI-H23 lung) [µM] | TGI (SNB-19 CNS) [µM] | TGI (SF-268 CNS) [µM] | TGI (SK-MEL-5 melanoma) [µM] | TGI (COLO 205 colon) [µM] | TGI (SNB-75 CNS) [µM] | TGI (DU-145 prostate) [µM] | TGI (PC-3 prostate) [µM] | TGI (BT-549 breast) [µM] | TGI (SK-OV-3 ovarian) [µM]
1 | COc1ccc(N/N=C/C2=CC(C)(C)C(C#N)(C#N)C(O)=C2C#N)cc1 | > 100 | > 100 | > 100 | > 100 | > 100 | > 100 | > 100 | > 100 | > 100 | > 100 | > 100 | > 100 | > 100 | 49.8 | > 100 | > 100 | > 100 | – | –
2 | CN(C)/C=C/c1c2c(nc3ccccc13)C(=O)c1cccnc1C2=O | 4.1 | – | 2.53 | 2.28 | 6.98 | 5.9 | 6.27 | 1.62 | 1.25 | 0.42 | 1.95 | 4.02 | 0.346 | 5.55 | 4.66 | 1.47 | 11.1 | 1.6 | 1.16
3 | COc1ccc(/C=C2/SC(=Nc3ccccc3)N(NC(=O)Cc3ccccc3)C2=O)c(OC)c1 | > 100 | – | – | > 100 | > 100 | > 100 | > 100 | > 100 | > 100 | > 100 | > 100 | > 100 | > 100 | > 100 | > 100 | > 100 | – | – | > 100
4 | CSc1nc(-c2ccccc2)nc(C(C#N)C#N)n1 | > 100 | > 100 | > 100 | > 100 | > 100 | > 100 | > 100 | > 100 | > 100 | > 100 | > 100 | > 100 | > 100 | > 100 | > 100 | > 100 | > 100 | – | > 100
5 | Cc1oc2nc(N(C)C)nc(NN)c2c1C | > 100 | – | > 100 | > 100 | > 100 | > 100 | > 100 | > 100 | > 100 | > 100 | > 100 | > 100 | > 100 | > 100 | > 100 | > 100 | > 100 | > 100 | –
6 | COC(=O)/C(=N\NC(N)=O)C(C#N)c1ccccc1 (centres undefined) | > 100 | > 100 | > 100 | > 100 | > 100 | > 100 | > 100 | > 100 | > 100 | > 100 | > 100 | > 100 | – | > 100 | > 100 | – | – | – | > 100
7 | CCCCc1nc(C)oc1C(C)C | – | > 100 | > 100 | > 100 | > 100 | > 100 | – | > 100 | > 100 | > 100 | – | > 100 | > 100 | > 100 | > 100 | > 100 | > 100 | > 100 | > 100
8 | Cc1ccc2nc(CN(CCO)CCO)cc(=O)n2c1 | > 100 | > 100 | > 100 | > 100 | > 100 | > 100 | – | > 100 | > 100 | > 100 | > 100 | > 100 | – | > 100 | > 100 | > 100 | > 100 | > 100 | > 100
9 | O=C(c1ccccc1)N(CCCCNC(=O)C(F)(F)F)CCCNC(=O)C(F)(F)F | – | > 100 | > 100 | > 100 | > 100 | > 100 | > 100 | > 100 | > 100 | > 100 | > 100 | > 100 | > 100 | > 100 | > 100 | > 100 | – | > 100 | > 100
10 | COC(=O)CCC(=O)c1ccc2c(c1)CC1(C2)Cc2ccc(C(=O)CCC(=O)OC)cc2C1 | 61 | > 100 | > 100 | > 100 | > 100 | > 100 | > 100 | > 100 | > 100 | > 100 | – | – | 61.5 | > 100 | 0.172 | – | > 100 | – | > 100
11 | c1cc(C2=NCCO2)c2ccsc2c1 | > 100 | > 100 | > 100 | > 100 | > 100 | > 100 | > 100 | > 100 | > 100 | > 100 | > 100 | > 100 | > 100 | > 100 | 99.1 | > 100 | > 100 | – | > 100
12 | COc1ccc(-c2cc(=O)c3cc(Cl)ccc3[nH]2)cc1 | – | > 100 | > 100 | > 100 | > 100 | – | > 100 | > 100 | > 100 | > 100 | > 100 | > 100 | > 100 | > 100 | > 100 | – | – | – | > 100
13 | NNC(=O)CC(=O)Nc1ccc(S(=O)(=O)c2ccc(NC(=O)CC(=O)NN)cc2)cc1 | > 100 | – | > 100 | > 100 | > 100 | > 100 | > 100 | > 100 | > 100 | > 100 | > 100 | > 100 | > 100 | > 100 | > 100 | > 100 | > 100 | > 100 | > 100
14 | O=C1c2cn[nH]c2N=C(Nc2ccccc2)C1N=Cc1ccc([N+](=O)[O-])cc1 (centres undefined) | – | > 10 | > 10 | > 10 | > 10 | > 10 | – | > 10 | – | > 10 | > 10 | > 10 | > 10 | – | > 10 | > 10 | > 10 | > 10 | –
15 | CCOC(=O)/C(=C\c1cn(C(C)=O)c2ccccc12)P(C)(=O)OCC (centres undefined) | > 100 | – | > 100 | > 100 | > 100 | > 100 | > 100 | > 100 | > 100 | – | > 100 | 50.5 | > 100 | > 100 | 36.5 | > 100 | > 100 | 61.3 | 66.1
16 | CN/N=C(\C(=O)Nc1ccc(C(F)(F)F)cc1[N+](=O)[O-])C(c1cnc2ccc([N+](=O)[O-])cc2n1)[N+](=O)[O-] (centres undefined) | > 100 | > 100 | – | > 100 | > 100 | > 100 | > 100 | > 100 | – | > 100 | > 100 | > 100 | > 100 | > 100 | – | – | – | – | > 100
17 | O=C1CCCCCCCCCCC1CN1CCOCC1 (centres undefined) | – | – | > 100 | > 100 | > 100 | > 100 | > 100 | > 100 | > 100 | > 100 | > 100 | > 100 | > 100 | > 100 | – | > 100 | > 100 | > 100 | > 100
18 | CNC(=O)N1CN(c2ccccc2)C2(CCN(Cc3ccccc3)CC2)C1=O | – | > 100 | > 100 | > 100 | 46.8 | > 100 | > 100 | > 100 | > 100 | > 100 | > 100 | > 100 | > 100 | > 100 | > 100 | > 100 | > 100 | – | > 100
19 | C/C=C\C(CC(=O)NCCC1CN(C(=O)OCc2ccccc2)c2ccccc21)CC(=O)OC (centres undefined) | > 100 | – | – | > 100 | > 100 | > 100 | > 100 | > 100 | > 100 | > 100 | > 100 | > 100 | > 100 | > 100 | > 100 | > 100 | > 100 | > 100 | > 100
20 | O=C1CCC2(CC1CCS(=O)c1ccccc1)OCCO2 (centres undefined) | > 100 | > 100 | > 100 | > 100 | > 100 | > 100 | > 100 | > 100 | > 100 | > 100 | > 100 | > 100 | > 100 | > 100 | > 100 | > 100 | > 100 | – | > 100
21 | CC(C)(C)OC(=O)NCCC1CNc2ccccc21 (centres undefined) | > 100 | – | – | > 100 | > 100 | > 100 | > 100 | > 100 | > 100 | > 100 | > 100 | > 100 | > 100 | > 100 | > 100 | > 100 | > 100 | > 100 | > 100
22 | Cc1cc(C#N)c(Nc2ccc(F)cc2[N+](=O)[O-])s1 | – | – | – | > 100 | > 100 | > 100 | > 100 | > 100 | > 100 | > 100 | > 100 | > 100 | – | > 100 | > 100 | > 100 | > 100 | > 100 | > 100

Reference: PubChem BioAssay (NCI)
